Where a SMILES comes first, the peptide text is derived from it. [ ]: non-standard residue; d: D form. Nle = CCCC[C@H](N)C(=O)O
How the values were obtained:
A375 melanoma cells [1] = experiment: In vitro cytotoxicity, MTT colorimetric assay; assay type: cell-based, human
Method: Cells were seeded in a 96-well plate and allowed to adhere overnight prior to adding the compound [29]. After 72 h of treatment in serum-free media, an MTT solution was added to each well to give a final concentration of 0.5 mg/mL and was incubated for 3 h. Formed crystals were solubilized, and their absorbance was measured at 595 nm.

[2] = Serum stability (human serum, RP-HPLC); assay type: in vitro ADME; conditions: human serum incubation, 37 °C, data not shown
Method: Human serum (250 µL) was thawed to room temperature and was added to DMEM media (650 µL). The mixture was kept in a 37 °C incubator to mimic human body temperature for 15 min. The peptide (100 µL, 1 mM) was dissolved (dispersed) in sterile water. The peptide solution was added to the pre-warmed human serum and DMEM mixture. The mixture was incubated at 37 °C. At different time points (0, 0.5, 1, 5, and 24 h) aliquots (100 µL) were removed and added to methanol (200 µL). Each time point sample was kept at 4 °C for 5 min, and then was centrifuged at 500× g for 15 min to separate serum proteins. The supernatant was injected into the RP-HPLC, and the major peaks were collected. The peak’s mass was determined using MALDI-TOF mass analysis. The serum stabilities of the D-aa KK-11 were determined by comparing the HPLC peaks (AUC) for the intact peptides at different time points.

[3] = system: A375 human melanoma xenograft; experiment: In vivo xenograft melanoma mouse model; conditions: KK-11 alone, in vivo studies
Method: The study was carried out in compliance with the ARRIVE guidelines. All the animal studies and procedures were approved by the IACUC at Chapman University and conducted in compliance with the policies of Chapman University, in addition to those of federal, state, and local animal welfare authorities. Nude mice (NU/NU) were purchased from Charles River (Wilmington, MA, USA) and were housed and maintained in the Chapman University vivarium under pathogen-free conditions. A375 cells were suspended in cold Matrigel and injected subcutaneously into the flank of each mouse (1 × 10^6 cells per mouse) to establish tumors. The mice were treated by tail vein injections of 1× PBS, D-aa KK-11 alone (1.75 mg/kg), MAC-3-190 (5 mg/kg) alone, or D-aa KK-11 and MAC-3-190 co-treatment for 21 days. For the co-treatment, the solution of D-aa KK-11 and MAC-3-190 (1:11 molar ratio) was mixed gently and incubated at room temperature for 30 min before tail vein injection. The growth of the tumors was monitored three times a week and measured using digital Vernier calipers. The tumor volume (mm^3) was calculated as [Length × (Width^2)]/2 (in mm). The mice were sacrificed after 21 days per IACUC policy when the control group’s average tumor size reached 2000 mm^3. Tumor xenografts were removed and weighed.

[4] = system: human melanoma cells (wm3211, Sk-mel-28, A375); experiment: In vitro cellular uptake of FITC-labeled peptides by flow cytometry; assay type: cell-based; conditions: FITC-labeled peptides 0.5 and 1 µM, A375, Sk-mel-28, wm3211, compared with FITC alone
Method: The peptide (FITC-labeled) concentration was determined using a Shimadzu BioSpec-nano Micro-volume UV-Vis spectrophotometer (Shimadzu, Kyoto, Japan). Human melanoma cells (wm3211, Sk-mel-28, and A375) were incubated with FITC or FITC-labeled peptides at final concentrations of 0.5 µM and 1 µM for 2 h. After thorough washing with cold 1× PBS, the melanoma cells in a single cell suspension were collected for flow cytometry analysis (BD FACSVerse, BD Biosciences, Franklin Lakes, NJ, USA). The mean fluorescence density of 10,000 cells was analyzed and compared to that of control cells, as described previously.

A375 melanoma cells [5] = experiment: Fluorescence microscopy of peptide uptake; assay type: cell-based, human; conditions: 0.5 µM, 30 min incubation, confocal microscopy, DAPI nuclei
Method: A375 melanoma cells were plated on coverslips and allowed to adhere overnight to 75% confluence, then incubated with 0.5 µM of FITC-KK-11 for 30 min at room temperature. After treatment, cells were washed three times in 1× PBS then fixed with 4% formaldehyde in 1× PBS for 15 min at room temperature. Fixed cells were then washed three times in 1× PBS for 5 min each, followed by curing in the dark with ProLong™ Gold Antifade Mountant with DAPI (P36935, Life Technologies Corporation, Eugene, OR, USA) for 1 h. Slides were visualized and recorded using the Nikon Eclipse Ti2-E confocal microscopy system (Nikon, Melville, NY, USA) using green and blue filters with 60× magnification.

[6] = system: athymic nude mice bearing human melanoma A375 tumors; experiment: In vivo and ex vivo imaging (biodistribution) in mice bearing A375 tumors; conditions: 8 µg per mouse
Method: The study was carried out in compliance with Animal Research: Reporting of In Vivo Experiments (ARRIVE) guidelines. All the animal procedures were approved by the Institutional Animal Care and Use Committee (IACUC) at Chapman University and conducted in compliance with the policies of Chapman University, in addition to those of federal, state, and local animal welfare authorities. Male and female athymic nude mice (4–6 weeks old) were kept (5 in each cage) in a pathogen-free environment. Approximately 1 million human melanoma A375 cells (0.1 mL in normal saline), mixed with 0.1 mL cold Matrigel (#354248; Corning, Corning, NY, USA), were injected subcutaneously into the flank. The tumor size was measured with a caliper, and body weight was recorded once a week. When the tumor size reached approximately 800–1000 mm^3, as calculated using the following formula: [Length × (Width^2)]/2 (in mm), mice were processed for in vivo or ex vivo imaging.
For in vivo imaging, normal saline or VivoTag-KK-11 at a dose of 8 µg per mouse was injected into the mice via the tail vein (n = 2 for each time point). The animals were then scanned at different time intervals (0.5, 2, 6, and 24 h) using an IVIS Spectrum in vivo imaging system (PerkinElmer, Waltham, MA, USA). The mice were imaged for 0.5 s, 10 bin, level B at an emission wavelength of 688 ± 5 nm. Imaging was limited to no more than once a day and was conducted under continuously maintained isoflurane. Mice were maintained on alfalfa-free diets to minimize the background fluorescence. All the study animals survived through the in vivo imaging procedure.
For ex vivo imaging at defined time intervals (5, 15, 30 min, followed by 1, 1.5, 2, 3, 4, 6, 24, and 48 h) following fluorescence conjugate injection, animals were euthanized via carbon dioxide inhalation (n = 2 for each time point); tumor, liver, spleen, heart, lungs, brain, and kidneys were collected and briefly rinsed with saline. The organs were then imaged for 0.5 s, 10 bin, level B at an emission wavelength of 688 ± 5 nm using an IVIS Spectrum imaging system.

## COc1cccc2c1C(=O)c1c(O)c3c(c(O)c1C2=O)C[C@@](O)(C(=O)CO)C[C@@H]3O[C@H]1C[C@H](N)[C@H](O)[C@H](C)O1 [DOX, doxorubicin, reference compound]
A375 melanoma cells [1]; A375, DOX 0.5 µM alone, 72 h, serum-free media, MTT
  Cell viability, % of control: 62 % of control
A375 melanoma cells [1]; A375, DOX 1 µM alone, 72 h, MTT
  Cell viability (cells survived), % of control: 24%

## CCCC[C@H](NC(=O)[C@H](Cc1c[nH]c2ccccc12)NC(=O)[C@@H]1CCCN1C(=O)[C@@H](N)C(C)C)C(=O)N[C@@H](CCC(=O)O)C(=O)N1CCC[C@H]1C(=O)N[C@@H](C)C(=O)N[C@@H](Cc1ccc(O)cc1)C(=O)N[C@@H](CCC(N)=O)C(=O)N[C@@H](CCCNC(=N)N)C(=O)N[C@@H](Cc1ccccc1)C(=O)N[C@@H](CC(C)C)C(N)=O [KK-11] (H-VPW[Nle]EPAYQRFL-NH2)
[2]
  Time to undetectable level of intact peptide in human serum: ≤ 30 min
A375 melanoma cells [1]; A375, KK-11 1 µM with MAC-3-190 at 25% IC50, 50% IC50, IC50 and 2× IC50, 72 h, MTT, vs MAC-3-190 alone
  Enhancement of MAC-3-190 cytotoxicity by KK-11 co-treatment: did not observe any significant enhancement of cytotoxicity
A375 melanoma cells [1]; A375, pretreated with KK-11 for 4 h, washed away, then DOX 72 h, MTT
  Effect of sequential KK-11 then DOX treatment on DOX cytotoxicity: failed to produce any changes on DOX cytotoxicity
A375 melanoma cells [1]; KK-11 alone, in vitro studies
  Cytotoxicity of peptide alone, in vitro: No cytotoxicity
[3]
  Cytotoxicity of peptide alone, in vivo: No cytotoxicity

## FITC-Aβ-VPWXEPAYQRFL [FITC-KK-11, KK-11 labeled with FITC at the N-terminus via β-alanine spacer]
[4]
  Uptake of FITC-labeled peptide by melanoma cells: highest
A375 melanoma cells [5]
  Cellular localisation of FITC-labeled peptide: present in the cytoplasm

## VivoTag-Aβ-VPWxEPAYQrFL [VivoTag-KK-11, VivoTag 680 XL labeled D-amino acid analogue of KK-11]
[6]; IV tail vein, A375 xenograft nude mice, excised tumors, IVIS, n = 2 per time point
  Time post injection up to which fluorescence remained detectable in tumor xenografts, ex vivo imaging: 24 h
[6]; tail vein, A375 xenograft nude mice, IVIS, n = 2 per time point
  Time after injection by which the peptide distributed to the tumor (and lungs, heart, spleen), ex vivo imaging: ≤ 5 min
[6]; tail vein, ex vivo organ imaging
  Brain penetration: no brain penetration was observed
[6]; tail vein, ex vivo organ imaging (lungs, heart, spleen)
  Time after injection by which the peptide cleared from other organs: ≤ 6 h
[6]; tail vein, ex vivo organ imaging, after 6 h
  Time after injection up to which the peptide was predominantly detected in kidneys: 48 h

— PMC9145755, “A Small Peptide Increases Drug Delivery in Human Melanoma Cells” (Pharmaceutics, 2022)
